Laboratory results: ChEMBL document CHEMBL5291721, “A preclinical secondary pharmacology resource illuminates target-adverse drug reaction associations of marketed drugs” (Nat Commun, 2023)

Experiments:
[1] = target: T1, Adenosine receptor A1 (Homo sapiens, UniProt P30542)
T1 sequence (P30542 whole entry): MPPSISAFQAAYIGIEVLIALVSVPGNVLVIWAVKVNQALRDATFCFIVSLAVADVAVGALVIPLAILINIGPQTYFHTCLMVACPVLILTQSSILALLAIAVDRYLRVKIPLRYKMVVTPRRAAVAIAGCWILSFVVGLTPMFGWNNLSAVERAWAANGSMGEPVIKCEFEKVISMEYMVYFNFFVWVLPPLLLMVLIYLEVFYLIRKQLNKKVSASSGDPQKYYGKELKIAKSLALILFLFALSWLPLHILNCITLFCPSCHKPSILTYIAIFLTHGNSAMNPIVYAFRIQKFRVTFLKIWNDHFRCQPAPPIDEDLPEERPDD

[2] = target: Melanocortin receptor 3 (Homo sapiens, UniProt P41968)
Chain of Melanocortin receptor 3 (P41968 whole entry): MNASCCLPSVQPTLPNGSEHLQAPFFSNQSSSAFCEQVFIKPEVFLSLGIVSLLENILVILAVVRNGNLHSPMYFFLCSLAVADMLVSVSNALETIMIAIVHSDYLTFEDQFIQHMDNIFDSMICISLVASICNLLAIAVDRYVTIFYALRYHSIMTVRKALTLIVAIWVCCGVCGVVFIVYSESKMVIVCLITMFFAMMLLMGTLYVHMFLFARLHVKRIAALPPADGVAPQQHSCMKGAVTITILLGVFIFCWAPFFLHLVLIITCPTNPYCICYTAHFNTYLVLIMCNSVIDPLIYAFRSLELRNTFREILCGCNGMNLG

[3] = target: T2, Adenosine receptor A3 (Homo sapiens, UniProt P0DMS8)
T2 sequence (P0DMS8 whole entry): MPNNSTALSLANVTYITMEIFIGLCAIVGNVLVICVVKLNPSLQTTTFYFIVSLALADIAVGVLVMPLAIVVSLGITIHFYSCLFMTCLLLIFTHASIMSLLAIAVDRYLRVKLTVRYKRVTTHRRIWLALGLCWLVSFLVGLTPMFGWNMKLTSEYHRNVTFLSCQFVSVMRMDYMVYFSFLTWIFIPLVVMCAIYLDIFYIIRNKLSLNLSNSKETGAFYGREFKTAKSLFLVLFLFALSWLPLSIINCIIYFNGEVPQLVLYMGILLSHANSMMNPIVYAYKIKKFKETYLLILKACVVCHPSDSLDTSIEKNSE

[4] = target: T3, Progesterone receptor (Homo sapiens, UniProt P06401); format: functional
T3 sequence (P06401 whole entry): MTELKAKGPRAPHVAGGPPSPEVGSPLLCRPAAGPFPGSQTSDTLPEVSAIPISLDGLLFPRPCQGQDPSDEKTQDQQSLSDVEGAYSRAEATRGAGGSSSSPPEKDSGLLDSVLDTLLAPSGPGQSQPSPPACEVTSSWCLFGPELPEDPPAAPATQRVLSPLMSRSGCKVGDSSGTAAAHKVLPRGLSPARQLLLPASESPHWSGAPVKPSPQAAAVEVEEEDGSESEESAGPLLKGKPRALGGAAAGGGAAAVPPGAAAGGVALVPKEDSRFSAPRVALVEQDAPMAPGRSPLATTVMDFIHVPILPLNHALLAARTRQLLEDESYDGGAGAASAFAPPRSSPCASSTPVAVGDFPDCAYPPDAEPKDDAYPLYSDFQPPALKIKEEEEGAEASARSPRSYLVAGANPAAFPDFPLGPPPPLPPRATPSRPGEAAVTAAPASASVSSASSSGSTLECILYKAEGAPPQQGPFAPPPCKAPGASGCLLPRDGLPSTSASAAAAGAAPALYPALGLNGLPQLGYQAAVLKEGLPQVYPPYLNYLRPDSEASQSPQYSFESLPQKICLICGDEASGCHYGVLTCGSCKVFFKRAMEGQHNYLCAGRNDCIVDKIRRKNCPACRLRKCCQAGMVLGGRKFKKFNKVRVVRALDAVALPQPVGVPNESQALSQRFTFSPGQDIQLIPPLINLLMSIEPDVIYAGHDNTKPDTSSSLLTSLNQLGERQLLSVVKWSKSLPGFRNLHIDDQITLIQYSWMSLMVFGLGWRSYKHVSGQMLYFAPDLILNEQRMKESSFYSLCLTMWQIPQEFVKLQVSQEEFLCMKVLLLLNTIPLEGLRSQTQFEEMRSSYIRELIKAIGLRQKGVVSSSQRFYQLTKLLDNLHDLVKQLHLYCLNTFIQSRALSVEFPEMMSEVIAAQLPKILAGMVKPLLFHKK

[5] = target: T4, 5-hydroxytryptamine receptor 2B (Homo sapiens, UniProt P41595); format: functional, cell-based
T4 sequence (P41595 whole entry): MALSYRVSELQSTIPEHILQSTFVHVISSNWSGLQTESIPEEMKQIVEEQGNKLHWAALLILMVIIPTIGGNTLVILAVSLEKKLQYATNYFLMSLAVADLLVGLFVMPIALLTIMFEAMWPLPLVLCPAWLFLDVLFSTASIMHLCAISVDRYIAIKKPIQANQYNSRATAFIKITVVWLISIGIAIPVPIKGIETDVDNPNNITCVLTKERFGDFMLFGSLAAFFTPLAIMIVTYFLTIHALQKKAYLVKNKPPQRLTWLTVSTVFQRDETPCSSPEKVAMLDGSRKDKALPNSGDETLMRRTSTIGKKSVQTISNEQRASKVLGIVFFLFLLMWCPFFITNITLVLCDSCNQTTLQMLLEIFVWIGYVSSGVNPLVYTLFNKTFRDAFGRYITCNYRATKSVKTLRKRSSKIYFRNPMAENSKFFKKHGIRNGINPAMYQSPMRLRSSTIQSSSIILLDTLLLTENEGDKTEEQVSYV

[6] = target: T5, Amine oxidase [flavin-containing] A (Homo sapiens, UniProt P21397); format: functional
T5 sequence (P21397 whole entry): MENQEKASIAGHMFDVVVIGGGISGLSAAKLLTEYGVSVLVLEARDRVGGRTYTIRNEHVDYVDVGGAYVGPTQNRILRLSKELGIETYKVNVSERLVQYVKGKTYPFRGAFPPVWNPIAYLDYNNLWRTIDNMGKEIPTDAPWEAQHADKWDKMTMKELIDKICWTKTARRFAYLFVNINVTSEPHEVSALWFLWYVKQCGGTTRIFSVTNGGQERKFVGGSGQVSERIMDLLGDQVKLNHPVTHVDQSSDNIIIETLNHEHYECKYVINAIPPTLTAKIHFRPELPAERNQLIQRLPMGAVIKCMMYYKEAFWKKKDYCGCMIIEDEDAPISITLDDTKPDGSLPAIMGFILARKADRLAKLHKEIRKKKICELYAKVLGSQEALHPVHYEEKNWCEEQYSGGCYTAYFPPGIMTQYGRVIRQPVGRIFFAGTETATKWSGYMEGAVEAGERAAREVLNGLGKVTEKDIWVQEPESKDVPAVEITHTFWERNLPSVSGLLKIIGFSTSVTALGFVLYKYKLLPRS

[7] = target: T4, 5-hydroxytryptamine receptor 2B; format: functional, cell-based; remark: listed apart in the source
[8] = target: Beta-2 adrenergic receptor (Homo sapiens, UniProt P07550); format: functional, cell-based
Chain of Beta-2 adrenergic receptor (P07550 whole entry): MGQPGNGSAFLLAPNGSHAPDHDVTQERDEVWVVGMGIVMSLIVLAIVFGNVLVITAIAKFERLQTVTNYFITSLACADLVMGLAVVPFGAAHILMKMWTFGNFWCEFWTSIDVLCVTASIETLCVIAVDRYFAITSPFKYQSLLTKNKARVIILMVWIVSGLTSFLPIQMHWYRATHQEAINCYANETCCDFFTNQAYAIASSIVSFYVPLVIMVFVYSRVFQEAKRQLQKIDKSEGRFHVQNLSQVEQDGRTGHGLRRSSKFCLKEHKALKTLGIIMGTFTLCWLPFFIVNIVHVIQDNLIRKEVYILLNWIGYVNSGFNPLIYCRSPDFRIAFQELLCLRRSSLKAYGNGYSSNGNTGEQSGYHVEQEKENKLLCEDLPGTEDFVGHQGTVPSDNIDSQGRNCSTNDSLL

[9] = target: Delta-type opioid receptor (Homo sapiens, UniProt P41143)
Chain of Delta-type opioid receptor (P41143 whole entry): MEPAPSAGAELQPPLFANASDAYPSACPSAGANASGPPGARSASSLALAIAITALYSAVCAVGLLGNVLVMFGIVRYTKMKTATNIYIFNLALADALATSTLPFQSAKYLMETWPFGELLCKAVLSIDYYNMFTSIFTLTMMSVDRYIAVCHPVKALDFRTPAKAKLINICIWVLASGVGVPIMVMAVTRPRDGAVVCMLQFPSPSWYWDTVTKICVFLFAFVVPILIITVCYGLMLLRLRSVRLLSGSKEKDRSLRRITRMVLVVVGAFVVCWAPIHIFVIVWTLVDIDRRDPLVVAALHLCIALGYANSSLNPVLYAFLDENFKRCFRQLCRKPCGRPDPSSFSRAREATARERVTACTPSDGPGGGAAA

[10] = target: T2, Adenosine receptor A3; remark: listed apart in the source
[11] = target: Glutamate receptor ionotropic, NMDA 1 (Rattus norvegicus, UniProt P35439)
Note: assay procedure not described here.

Compound	AC50 [1] [µM]	AC50 [2] [µM]	AC50 [3] [µM]	AC50 [4] [µM]	AC50 [5] [µM]	AC50 [6] [µM]	AC50 [7] [µM]	AC50 [8] [µM]	AC50 [9] [µM]	AC50 [10] [µM]	AC50 [11] [µM]
CCOc1nc2cccc(C(=O)O)c2n1Cc1ccc(-c2ccccc2-c2nnn[nH]2)cc1	> 30	> 30	> 30	> 30	16	> 30	> 30	> 30	> 30		
CCCc1nc2c(C)cc(-c3nc4ccccc4n3C)cc2n1Cc1ccc(-c2ccccc2C(=O)O)cc1	> 30	> 30	18.3	> 30	6.33	> 30	> 30	> 30		17.4	> 30
CCOc1cc([C@@H](CS(C)(=O)=O)N2C(=O)c3cccc(NC(C)=O)c3C2=O)ccc1OC	> 30	> 30	> 30	> 30	4.5	> 30	> 30	> 30	> 30		
CC1(C)S[C@@H]2[C@H](NC(=O)C(C(=O)O)c3ccccc3)C(=O)N2[C@H]1C(=O)O (some centres not stated) [CARBENICILLIN]	> 30	> 30	> 30	> 30	> 30	> 30	> 30	> 30	> 30		> 30
Cc1nnc(SCC2=C(C(=O)O)N3C(=O)[C@@H](NC(=O)Cn4cnnn4)[C@H]3SC2)s1 [CEFAZOLIN]	> 300	> 300	> 300	> 300	> 300	> 300	> 300	> 300	> 300		> 30
CC(C)(O/N=C(\C(=O)N[C@@H]1C(=O)N2C(C(=O)[O-])=C(C[n+]3ccccc3)CS[C@H]12)c1csc(N)n1)C(=O)O [CEFTAZIDIME]	> 300	> 300	> 300	> 300	> 300	> 300	> 300	> 300	> 300		> 30
CCC(=O)O[C@]1(C(=O)CCl)[C@@H](C)C[C@H]2[C@@H]3CCC4=CC(=O)C=C[C@]4(C)[C@@]3(F)[C@@H](O)C[C@@]21C [CLOBETASOL PROPIONATE]	> 30	> 30	> 30	0.053	> 30	> 30	> 30	> 30	> 30		> 30
Cc1nc(Nc2ncc(C(=O)Nc3c(C)cccc3Cl)s2)cc(N2CCN(CCO)CC2)n1 [DASATINIB]	> 30	> 30	21.5	> 30	6.3	> 30	> 30	> 30	9.76		> 10
CC(C)Cc1ccc([C@H](C)C(=O)O)cc1 [DEXIBUPROFEN]	> 30	> 30	> 30	> 30	> 30	> 30	> 30	> 30	> 30		
